From patent US8232406B2, “c-MET protein kinase inhibitors” (Vertex Pharmaceuticals Incorporated, priority 2006, dated 2012)

Biological target: c-MET (Homo sapiens, UniProt P08581)
Assay: Ki determination for the inhibition of c-MET (standard radiometric 33P-ATP kinase assay, polyE4Y substrate)
Type: biochemical
Settings: 1.0 nM c-Met, 35 μM ATP, 0.5 mg/mL polyE4Y, 20 min; competitive tight-binding fit
Method: Ki Determination for the Inhibition of c-MET
Compounds of the invention were screened for their ability to inhibit c-MET kinase activity using a standard radiometric assay. Briefly, in this kinase assay the transfer of the terminal ^33P-phosphate in ^33P-ATP to substrate polyE4Y is interrogated. The assay was carried out in 96-well plates to a final volume of 100 μL per well containing 1.0 nM c-Met, 100 mM HEPES (pH 7.5), 10 mM MgCl2, 25 mM NaCl, 0.01% BSA, 1 mM DTT, 0.5 mg/mL polyE4Y, and 35 μM ATP. Accordingly, compounds of the invention were dissolved in DMSO to make 10 mM initial stock solutions. Serial dilutions in DMSO were then made to obtain the final solutions for the assay. A 1.5 μL aliquot of DMSO or inhibitor in DMSO was added to each well. The reaction was initiated by the addition of ^33P-ATP and polyE4Y (obtained from Sigma). After 20 min, the reaction was quenched with 50 μL of 30% trichloroacetic acid (TCA) containing 4 mM ATP. The reaction mixture was transferred to the 0.66 mm GF filter plates (Corning) and washed three times with 5% TCA. Following the addition of 50 μL of Ultimate Gold™ high efficiency scintillant (Packard Bioscience), the samples were counted in a Packard TopCount NXT Microplate Scintillation and Luminescence Counter (Packard BioScience). The Ki values were calculated using Microsoft Excel Solver macros to fit the data to the kinetic model for competitive tight-binding inhibition.

Sequence of c-MET (P08581 25-1390): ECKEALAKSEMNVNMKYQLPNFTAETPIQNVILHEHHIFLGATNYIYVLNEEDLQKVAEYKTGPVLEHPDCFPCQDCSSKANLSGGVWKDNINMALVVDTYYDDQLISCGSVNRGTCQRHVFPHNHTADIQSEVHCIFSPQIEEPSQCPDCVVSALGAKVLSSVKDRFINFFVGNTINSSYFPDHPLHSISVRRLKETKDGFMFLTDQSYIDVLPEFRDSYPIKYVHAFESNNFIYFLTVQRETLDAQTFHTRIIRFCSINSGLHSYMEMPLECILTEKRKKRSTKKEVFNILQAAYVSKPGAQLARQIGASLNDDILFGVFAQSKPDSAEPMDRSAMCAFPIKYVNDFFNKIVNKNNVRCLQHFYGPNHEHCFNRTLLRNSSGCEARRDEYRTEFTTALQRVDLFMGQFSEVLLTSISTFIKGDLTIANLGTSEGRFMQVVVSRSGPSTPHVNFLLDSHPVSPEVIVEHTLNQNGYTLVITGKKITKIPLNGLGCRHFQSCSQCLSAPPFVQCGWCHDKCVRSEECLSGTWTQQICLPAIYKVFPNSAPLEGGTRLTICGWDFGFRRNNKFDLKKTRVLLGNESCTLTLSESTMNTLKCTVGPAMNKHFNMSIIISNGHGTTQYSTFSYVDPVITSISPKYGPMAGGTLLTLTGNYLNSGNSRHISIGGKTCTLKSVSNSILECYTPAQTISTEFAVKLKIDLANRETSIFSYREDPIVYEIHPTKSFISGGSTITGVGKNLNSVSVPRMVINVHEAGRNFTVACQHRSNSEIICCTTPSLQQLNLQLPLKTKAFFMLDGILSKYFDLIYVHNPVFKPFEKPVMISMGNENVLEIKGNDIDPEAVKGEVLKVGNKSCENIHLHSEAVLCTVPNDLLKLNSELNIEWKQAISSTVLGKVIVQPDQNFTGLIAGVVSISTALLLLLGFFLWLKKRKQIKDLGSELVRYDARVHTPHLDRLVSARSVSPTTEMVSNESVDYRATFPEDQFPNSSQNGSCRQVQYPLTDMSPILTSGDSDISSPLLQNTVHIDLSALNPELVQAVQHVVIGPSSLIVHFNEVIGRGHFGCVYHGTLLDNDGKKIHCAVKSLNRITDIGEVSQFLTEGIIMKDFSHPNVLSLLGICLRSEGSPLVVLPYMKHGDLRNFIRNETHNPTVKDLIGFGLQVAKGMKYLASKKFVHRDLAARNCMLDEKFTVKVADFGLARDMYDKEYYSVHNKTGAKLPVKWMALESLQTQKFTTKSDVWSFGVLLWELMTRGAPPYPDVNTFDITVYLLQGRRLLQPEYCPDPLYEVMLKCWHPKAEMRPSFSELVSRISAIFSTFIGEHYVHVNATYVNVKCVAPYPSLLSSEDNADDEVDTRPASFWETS

With `Nc1ncc(-c2ccccc2Cl)cc1-c1nnnn1-c1cccc(F)c1F` [I-A-224] the Ki was 100 to 1000 nM.

With `CNC(=O)Cn1cc(-c2cnc(N)c(-c3nnnn3-c3cccc(F)c3F)c2)cn1` [I-A-369] the Ki was 100 to 1000 nM.

`COC(=O)[C@H](CC(C)C)NC(=O)Nc1cccc(-c2cnc(N)c(-c3nnnn3-c3cccc(F)c3F)c2)c1` [I-A-326] was tested, and the Ki was 100 to 1000 nM.

`Nc1ncc(-c2cnn(C3CCN(CCF)CC3)c2)cc1-c1nnnn1-c1cccc(F)c1F` [I-A-452] gave a Ki of no more than 100 nM.

Work on `Nc1ncc(-c2cnn(CC(=O)O)c2)cc1-c1nnnn1-c1cccc(F)c1F` [I-A-350] yielded a Ki of 100 to 1000 nM.

For `CN(C)CC(=O)N1CCC(n2cc(-c3cnc(N)c(-c4nnnn4-c4cccc(Cl)c4F)c3)cn2)CC1` [I-A-444], the Ki was no more than 100 nM.

`Nc1ncc(-c2ccc(CCN3CCCC3)cc2)cc1-c1nnnn1-c1cccc(F)c1F` [I-A-181] was tested, and the Ki was no more than 100 nM.

Work on `Nc1ncc(-c2ccc(NC(=O)c3cccs3)cc2)cc1-c1nnnn1-c1cccc(F)c1F` [I-A-161] yielded a Ki of 100 to 1000 nM.

Compound `CCN(CCO)Cc1ccc(-c2cnc(N)c(-c3nnnn3-c3cccc(F)c3F)c2)cc1` [I-A-146] has a Ki of no more than 100 nM.

With `Nc1ncc(-c2cnn(C3CCN(CC4CCC4)CC3)c2)cc1-c1nnnn1-c1cccc(Cl)c1F` [I-A-473] the Ki was no more than 100 nM.

`NC(=O)c1ccc(-c2cnc(N)c(-c3nnnn3-c3cccc(F)c3F)c2)cc1` [I-A-245] was tested, and the Ki was no more than 100 nM.

Work on `COCC(=O)Nc1ccc(-c2cnc(N)c(-c3nnnn3-c3cccc(F)c3F)c2)cc1` [I-A-342] yielded a Ki of no more than 100 nM.

`Nc1ncc(-c2cc3c(s2)CCNCC3)nc1-c1nnnn1-c1cccc(F)c1F` [I-A-653] was tested, and the Ki was no more than 100 nM.

In the case of `CC(=O)Nc1ccc(-c2cnc(N)c(-c3nnnn3-c3cccc(F)c3F)c2)c(F)c1` [I-A-126], the Ki is reported as no more than 100 nM.

With `Nc1ccc(-c2cnc(N)c(-c3nnnn3-c3cccc(Cl)c3Cl)c2)cc1` [I-A-86] the Ki was no more than 100 nM.

`Nc1ncc(-c2cccnc2)cc1-c1nnnn1-c1cccc(Cl)c1F` [I-A-557] was tested, and the Ki was 100 to 1000 nM.

`COc1c(F)cccc1-n1nnnc1-c1cc(-c2ccc(NC(C)=O)cc2)cnc1N` [I-A-588] gave a Ki of 100 to 1000 nM.

For `Nc1ncc(-c2cccnc2)cc1-c1nnnn1-c1cc(Cl)ccc1F` [I-A-554], the Ki was 100 to 1000 nM.

With `CC(=O)Nc1cc(-c2cnc(N)c(-c3nnnn3-c3cccc(F)c3F)c2)ccc1CN1CCCC1` [I-A-339] the Ki was no more than 100 nM.

With `Nc1ncc(-c2cnn([C@@H]3CCCNC3)c2)cc1-c1nnnn1-c1cccc(F)c1F` [I-A-417] the Ki was no more than 100 nM.

For `Nc1ncc(-c2cnn(C3CCNCC3)c2)cc1-c1nnnn1-c1cc(F)ccc1F` [I-A-625], the Ki was 100 to 1000 nM.

`Nc1ncc(-c2cnn(C3CNC3)c2)cc1-c1nnnn1-c1cccc(Cl)c1Cl` [I-A-427] gave a Ki of no more than 100 nM.

In the case of `CNCc1ccc(-c2cnc(N)c(-c3nnnn3-c3cccc(F)c3F)c2)cc1` [I-A-200], the Ki is reported as no more than 100 nM.

For `Cc1nn(C2CCNCC2)c(C)c1-c1cnc(N)c(-c2nnnn2-c2cccc(F)c2F)c1` [I-A-478], the Ki was 100 to 1000 nM.

`Nc1ncc(-c2cc3c(s2)CCNCC3)cc1-c1nnnn1-c1cccc(Cl)c1Cl` [I-A-431] gave a Ki of no more than 100 nM.

`CC(=O)N1CCCC1c1ccc(-c2cnc(N)c(-c3nnnn3-c3cccc(F)c3F)c2)cc1` (stereo not drawn) [I-A-335] showed a Ki of no more than 100 nM.

Work on `CC(C)C(=O)N1CC=C(c2cnc(N)c(-c3nnnn3-c3cccc(F)c3F)c2)CC1` [I-A-512] yielded a Ki of no more than 100 nM.

`COCCOC(=O)N1CCC(n2cc(-c3cnc(N)c(-c4nnnn4-c4cccc(Cl)c4F)c3)cn2)CC1` [I-A-440] gave a Ki of no more than 100 nM.

Work on `CN1CCN(c2ccc(-c3cnc(N)c(-c4nnnn4-c4cccc(F)c4F)n3)cc2)CC1` [I-A-46] yielded a Ki of no more than 100 nM.

`Nc1ncc(-c2cc3c(s2)CNCC3)nc1-c1nnnn1-c1cccc(Cl)c1F` [I-A-542] showed a Ki of no more than 100 nM.

`C[C@@H](C(=O)N1CC=C(c2cnc(N)c(-c3nnnn3-c3cccc(F)c3F)c2)CC1)N1CCCC1=O` [I-A-517] showed a Ki of 100 to 1000 nM.

For `COc1ccncc1-c1cnc(N)c(-c2nncn2-c2cccc(F)c2F)c1` [I-A-110], the Ki was 100 to 1000 nM.

Work on `Nc1ncc(-c2ccc(CN3CC[C@H](O)C3)cc2)cc1-c1nnnn1-c1cccc(F)c1F` [I-A-131] yielded a Ki of no more than 100 nM.

In the case of `CN1CCN(Cc2ccc(-c3cnc(N)c(-c4nnc(O)n4-c4cccc(F)c4F)c3)cc2)CC1` [I-A-42], the Ki is reported as 100 to 1000 nM.

Compound `Nc1ncc(-c2cccc3c2OC(F)(F)O3)cc1-c1nnnn1-c1cccc(F)c1F` [I-A-310] has a Ki of 100 to 1000 nM.

In the case of `CN1CCC(n2cc(-c3cnc(N)c(-c4nnnn4-c4cccc(F)c4F)c3)cn2)CC1` [I-A-434], the Ki is reported as no more than 100 nM.

`Nc1ncc(-c2ccc(CN3CCC(N4CCCCC4)CC3)cc2)cc1-c1nnnn1-c1cccc(Cl)c1Cl` [I-A-98] gave a Ki of no more than 100 nM.

`CSc1ccc(-c2cnc(N)c(-c3nnnn3-c3cccc(F)c3F)c2)cc1` [I-A-251] gave a Ki of no more than 100 nM.

Work on `Nc1ncc(-c2cnn(C3CCN(CC(F)F)CC3)c2)cc1-c1nnnn1-c1cccc(F)c1F` [I-A-453] yielded a Ki of no more than 100 nM.

In the case of `Cc1c(Cl)cccc1-n1nnnc1-c1cc(-c2ccc(CN3CCCC3)cc2)cnc1N` [I-A-599], the Ki is reported as no more than 100 nM.

Work on `Nc1ncc(-c2cccnc2)cc1-c1nnnn1-c1c(F)ccc(F)c1Cl` [I-A-618] yielded a Ki of 100 to 1000 nM.

Compound `NC(=O)[C@@H]1CCCN1Cc1ccc(-c2cnc(N)c(-c3nnnn3-c3cccc(F)c3F)c2)cc1` [I-A-132] has a Ki of no more than 100 nM.

With `CC(=O)Nc1cccc(-c2cnc(N)c(-c3nnnn3-c3c(F)ccc(F)c3N)c2)c1` [I-A-383] the Ki was 100 to 1000 nM.

Work on `Nc1ncc(-c2cnn(C3CCN(C(=O)CO)CC3)c2)cc1-c1nnnn1-c1cccc(Cl)c1F` [I-A-447] yielded a Ki of no more than 100 nM.

`Nc1ncc(-c2ccc(Cl)cc2)cc1-c1nncn1-c1cccc(F)c1F` [I-A-114] gave a Ki of 100 to 1000 nM.

Compound `CC1CN(Cc2ccc(-c3cnc(N)c(-c4nnnn4-c4cccc(Cl)c4Cl)c3)cc2)CCN1` (stereo not drawn) [I-A-106] has a Ki of no more than 100 nM.

Compound `Nc1ncc(-c2ccncc2)cc1-c1nnnn1-c1cccc(Cl)c1Cl` [I-A-84] has a Ki of 100 to 1000 nM.

`Nc1ncc(-c2cccnc2)cc1-c1nncn1-c1cccc(F)c1F` [I-A-39] gave a Ki of 100 to 1000 nM.

Compound `CN(C)Cc1ccc(-c2cnc(N)c(-c3nnnn3-c3cccc(F)c3F)c2)cc1F` [I-A-165] has a Ki of no more than 100 nM.

For `CC1CCCN1Cc1ccc(-c2cnc(N)c(-c3nnnn3-c3cccc(F)c3F)c2)cc1` (stereo not drawn) [I-A-209], the Ki was no more than 100 nM.

Compound `Nc1ncc(-c2ccncc2)nc1-c1nncn1-c1cccc(F)c1F` [I-A-3] has a Ki of 100 to 1000 nM.

In the case of `Nc1ncc(-c2ccc(CN3CCCC3)cc2)cc1-c1nnnn1-c1c(F)cccc1F` [I-A-615], the Ki is reported as no more than 100 nM.

For `Nc1ncc(-c2cnn(C3CNC3)c2)cc1-c1nnnn1-c1cccc(F)c1F` [I-A-426], the Ki was no more than 100 nM.

In the case of `Cc1nn(C2CCNCC2)c(C)c1-c1cnc(N)c(-c2nnnn2-c2cccc(Cl)c2F)c1` [I-A-479], the Ki is reported as 100 to 1000 nM.

With `Cc1nnc(-c2cc(-c3ccc(CN4CCCC4)cc3)cnc2N)n1-c1cccc(F)c1Cl` [I-A-388] the Ki was 100 to 1000 nM.

In the case of `Nc1ncc(-c2ccn(CCN3CCCC3)c2)cc1-c1nnnn1-c1cccc(F)c1F` [I-A-466], the Ki is reported as no more than 100 nM.

In the case of `Nc1ncc(-c2ccc(CN3CCCC3)cc2)cc1-c1nnnn1-c1cc(F)ccc1F` [I-A-594], the Ki is reported as 100 to 1000 nM.

Compound `CC(=O)Nc1cccc(-c2cnc(N)c(-c3nnnn3-c3cccc(Cl)c3F)c2)c1` [I-A-344] has a Ki of no more than 100 nM.

`Nc1ncc(-c2ccsc2)cc1-c1nncn1-c1cccc(Cl)c1Cl` [I-A-70] gave a Ki of 100 to 1000 nM.

`Nc1ncc(-c2cccc3c2OCO3)cc1-c1nnnn1-c1cccc(F)c1F` [I-A-305] was tested, and the Ki was no more than 100 nM.

`CN(C)Cc1ccc(-c2cnc(N)c(-c3nnnn3-c3cc(F)cc(F)c3)c2)cc1` [I-A-591] was tested, and the Ki was 100 to 1000 nM.

In the case of `CC(C)Oc1ccc(-c2cnc(N)c(-c3nnnn3-c3cccc(F)c3F)c2)cc1` [I-A-240], the Ki is reported as 100 to 1000 nM.

`Nc1ncc(-c2cnn(C3CCNCC3)c2)cc1-c1nnnn1-c1cccc(F)c1Cl` [I-A-385] was tested, and the Ki was no more than 100 nM.

`Cc1ccc(Cl)cc1-n1nnnc1-c1cc(-c2ccc(CN(C)C)cc2)cnc1N` [I-A-579] showed a Ki of 100 to 1000 nM.

Work on `Nc1ncc(-c2ccc(O)c(F)c2)cc1-c1nnnn1-c1cccc(F)c1F` [I-A-295] yielded a Ki of no more than 100 nM.

In the case of `CS(=O)(=O)NCc1ccc(-c2cnc(N)c(-c3nnnn3-c3cccc(F)c3F)c2)cc1` [I-A-192], the Ki is reported as no more than 100 nM.

For `Nc1ncc(-c2ccc(C3CCCN3)cc2)cc1-c1nnnn1-c1cccc(F)c1F` (stereo not drawn) [I-A-258], the Ki was no more than 100 nM.

Compound `NCc1ccc(-c2cnc(N)c(-c3nnnn3-c3cccc(F)c3F)c2)cc1` [I-A-202] has a Ki of no more than 100 nM.

In the case of `Nc1ncc(-c2csc(C3CCNCC3)c2)nc1-c1nnnn1-c1cccc(F)c1F` [I-A-654], the Ki is reported as 100 to 1000 nM.

`CN(C)CCn1cc(-c2cnc(N)c(-c3nc4cnccc4n3-c3cccc(F)c3F)c2)cn1` [I-D-9] was tested, and the Ki was no more than 100 nM.

For `COC(=O)c1cccc(-c2cnc(N)c(-c3nnnn3-c3cccc(F)c3F)c2)c1` [I-A-317], the Ki was 100 to 1000 nM.

Compound `CN(C)Cc1ccc(-c2cnc(N)c(-c3nnnn3-c3cccc(F)c3F)c2)cc1` [I-A-63] has a Ki of no more than 100 nM.

`Cc1nnc(-c2cc(-c3cnn(C4CCNCC4)c3)cnc2N)n1-c1cccc(F)c1Cl` [I-A-390] gave a Ki of 100 to 1000 nM.

`Nc1ncc(C2=CCN(Cc3cccnc3)CC2)cc1-c1nnnn1-c1cccc(F)c1F` [I-A-644] gave a Ki of 100 to 1000 nM.

For `COCCN1CCC(n2cc(-c3cnc(N)c(-c4nnnn4-c4cccc(Cl)c4F)c3)cn2)CC1` [I-A-477], the Ki was no more than 100 nM.

Work on `CN1CCN(Cc2ccc(-c3cnc(N)c(-c4nc5cnccc5n4-c4cccc(F)c4F)c3)cc2)CC1` [I-D-5] yielded a Ki of no more than 100 nM.

Work on `COC(=O)C(C)NC(=O)Nc1cccc(-c2cnc(N)c(-c3nnnn3-c3cccc(F)c3F)c2)c1` (stereo not drawn) [I-A-327] yielded a Ki of 100 to 1000 nM.

For `Nc1ncc(-c2nc3c(s2)CNCC3)nc1-c1nnnn1-c1cccc(F)c1F` [I-A-537], the Ki was 100 to 1000 nM.
